# ChEMBL document CHEMBL5442175, “EUbOPEN Chemogenomics Library - PDSP Secondary Binding” (2024)
# pKi: −log10 of the molar value. Where a name gives a salt, the structure may show the parent alone.
# Experiments:
# [1] = target: Sigma non-opioid intracellular receptor 1 (Homo sapiens, UniProt Q99720); assay: PDSP Secondary Binding target: SIGMAR1 - Compounds are tested at 10 uM concentration, plate are incubated at room temperature in the dark for 90 minutes. Reaction are stopped by vacuum filtration onto 0.3% polyethyleneimine soaked filter mats using Filtermate harvester. Scintillation cocktail is then melted onto microwave-dried filters on a hot plate and the radio activity is counted in Microbia counter.
# Chain of Sigma non-opioid intracellular receptor 1 (Q99720 whole entry): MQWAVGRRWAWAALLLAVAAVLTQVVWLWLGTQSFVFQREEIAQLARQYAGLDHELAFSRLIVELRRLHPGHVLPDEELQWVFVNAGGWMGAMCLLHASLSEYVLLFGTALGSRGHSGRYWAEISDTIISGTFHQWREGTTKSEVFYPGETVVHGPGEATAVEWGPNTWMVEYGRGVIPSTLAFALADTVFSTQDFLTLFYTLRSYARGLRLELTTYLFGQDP
# [2] = target: 5-hydroxytryptamine receptor 6 (Homo sapiens, UniProt P50406); assay: PDSP Secondary Binding target: HTR6 - Compounds are tested at 10 uM concentration, plate are incubated at room temperature in the dark for 90 minutes. Reaction are stopped by vacuum filtration onto 0.3% polyethyleneimine soaked filter mats using Filtermate harvester. Scintillation cocktail is then melted onto microwave-dried filters on a hot plate and the radio activity is counted in Microbia counter.
# Chain of 5-hydroxytryptamine receptor 6 (P50406 whole entry): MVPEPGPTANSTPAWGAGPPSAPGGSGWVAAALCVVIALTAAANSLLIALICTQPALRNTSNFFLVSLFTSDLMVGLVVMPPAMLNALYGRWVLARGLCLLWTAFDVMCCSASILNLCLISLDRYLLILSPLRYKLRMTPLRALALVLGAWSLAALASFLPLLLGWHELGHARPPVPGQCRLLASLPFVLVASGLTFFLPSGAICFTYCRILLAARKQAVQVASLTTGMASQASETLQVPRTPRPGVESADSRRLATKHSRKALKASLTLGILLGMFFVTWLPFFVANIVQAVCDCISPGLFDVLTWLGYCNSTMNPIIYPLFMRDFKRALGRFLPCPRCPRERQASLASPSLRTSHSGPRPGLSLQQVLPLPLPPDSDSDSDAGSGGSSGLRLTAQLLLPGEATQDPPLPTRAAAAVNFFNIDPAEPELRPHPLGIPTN
# [3] = target: Sigma intracellular receptor 2 (Homo sapiens, UniProt Q5BJF2); assay: PDSP Secondary Binding target: TMEM97 - Compounds are tested at 10 uM concentration, plate are incubated at room temperature in the dark for 90 minutes. Reaction are stopped by vacuum filtration onto 0.3% polyethyleneimine soaked filter mats using Filtermate harvester. Scintillation cocktail is then melted onto microwave-dried filters on a hot plate and the radio activity is counted in Microbia counter.
# Chain of Sigma intracellular receptor 2 (Q5BJF2 whole entry): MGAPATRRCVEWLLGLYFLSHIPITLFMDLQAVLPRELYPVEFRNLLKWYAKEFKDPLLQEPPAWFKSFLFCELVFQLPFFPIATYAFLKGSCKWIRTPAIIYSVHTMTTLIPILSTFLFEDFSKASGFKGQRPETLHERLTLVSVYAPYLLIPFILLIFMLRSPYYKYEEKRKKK
# D(4) dopamine receptor = target: T1, D(4) dopamine receptor (Homo sapiens, UniProt P21917); assay: PDSP Secondary Binding target: DRD4 - Compounds are tested at 10 uM concentration, plate are incubated at room temperature in the dark for 90 minutes. Reaction are stopped by vacuum filtration onto 0.3% polyethyleneimine soaked filter mats using Filtermate harvester. Scintillation cocktail is then melted onto microwave-dried filters on a hot plate and the radio activity is counted in Microbia counter.
# T1 sequence (P21917 whole entry): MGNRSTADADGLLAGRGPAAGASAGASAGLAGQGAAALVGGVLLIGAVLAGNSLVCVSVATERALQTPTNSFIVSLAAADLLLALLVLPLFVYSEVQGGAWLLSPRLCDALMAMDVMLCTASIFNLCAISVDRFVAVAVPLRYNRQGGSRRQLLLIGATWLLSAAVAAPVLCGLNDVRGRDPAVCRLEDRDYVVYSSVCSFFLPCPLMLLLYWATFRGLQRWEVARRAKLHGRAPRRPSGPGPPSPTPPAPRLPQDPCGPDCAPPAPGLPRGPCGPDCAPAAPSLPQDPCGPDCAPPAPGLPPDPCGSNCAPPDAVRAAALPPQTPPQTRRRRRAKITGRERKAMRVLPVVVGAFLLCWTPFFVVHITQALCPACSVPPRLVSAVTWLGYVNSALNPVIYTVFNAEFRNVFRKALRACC
# D(3) dopamine receptor = D(3) dopamine receptor (Homo sapiens, UniProt P35462); assay: PDSP Secondary Binding target: DRD3 - Compounds are tested at 10 uM concentration, plate are incubated at room temperature in the dark for 90 minutes. Reaction are stopped by vacuum filtration onto 0.3% polyethyleneimine soaked filter mats using Filtermate harvester. Scintillation cocktail is then melted onto microwave-dried filters on a hot plate and the radio activity is counted in Microbia counter.
# Chain of D(3) dopamine receptor (P35462 whole entry): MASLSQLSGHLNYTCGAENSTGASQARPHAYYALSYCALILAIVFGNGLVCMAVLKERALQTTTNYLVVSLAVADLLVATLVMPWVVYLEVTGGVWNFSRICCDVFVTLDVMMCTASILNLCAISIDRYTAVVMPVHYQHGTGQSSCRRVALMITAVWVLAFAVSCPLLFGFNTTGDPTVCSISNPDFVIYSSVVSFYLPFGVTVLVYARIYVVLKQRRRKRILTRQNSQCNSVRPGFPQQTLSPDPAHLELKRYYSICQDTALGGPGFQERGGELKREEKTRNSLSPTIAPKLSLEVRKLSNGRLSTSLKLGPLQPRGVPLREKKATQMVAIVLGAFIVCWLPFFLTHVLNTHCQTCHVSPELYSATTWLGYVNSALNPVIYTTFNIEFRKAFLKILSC
# [4] = target: Sodium-dependent serotonin transporter (Homo sapiens, UniProt P31645); assay: PDSP Secondary Binding target: SLC6A4 - Compounds are tested at 10 uM concentration, plate are incubated at room temperature in the dark for 90 minutes. Reaction are stopped by vacuum filtration onto 0.3% polyethyleneimine soaked filter mats using Filtermate harvester. Scintillation cocktail is then melted onto microwave-dried filters on a hot plate and the radio activity is counted in Microbia counter.
# Chain of Sodium-dependent serotonin transporter (P31645 whole entry): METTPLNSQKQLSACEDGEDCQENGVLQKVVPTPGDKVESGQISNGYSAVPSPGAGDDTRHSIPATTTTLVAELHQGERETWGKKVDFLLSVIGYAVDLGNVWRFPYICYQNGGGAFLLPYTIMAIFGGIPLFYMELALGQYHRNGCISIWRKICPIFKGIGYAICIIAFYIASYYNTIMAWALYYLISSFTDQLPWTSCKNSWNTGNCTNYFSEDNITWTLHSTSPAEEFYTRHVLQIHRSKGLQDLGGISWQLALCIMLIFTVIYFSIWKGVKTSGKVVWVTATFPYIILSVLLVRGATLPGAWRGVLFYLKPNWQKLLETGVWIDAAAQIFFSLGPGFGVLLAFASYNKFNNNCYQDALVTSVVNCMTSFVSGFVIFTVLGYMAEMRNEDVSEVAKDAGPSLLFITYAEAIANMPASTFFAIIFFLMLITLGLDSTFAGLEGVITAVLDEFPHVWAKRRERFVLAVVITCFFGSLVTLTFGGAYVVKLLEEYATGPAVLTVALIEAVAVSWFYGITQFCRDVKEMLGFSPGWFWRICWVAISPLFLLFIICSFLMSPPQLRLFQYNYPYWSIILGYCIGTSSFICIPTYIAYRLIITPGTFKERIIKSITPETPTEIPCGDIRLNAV
# [5] = target: Sodium-dependent noradrenaline transporter (Homo sapiens, UniProt P23975); assay: PDSP Secondary Binding target: SLC6A2 - Compounds are tested at 10 uM concentration, plate are incubated at room temperature in the dark for 90 minutes. Reaction are stopped by vacuum filtration onto 0.3% polyethyleneimine soaked filter mats using Filtermate harvester. Scintillation cocktail is then melted onto microwave-dried filters on a hot plate and the radio activity is counted in Microbia counter.
# Chain of Sodium-dependent noradrenaline transporter (P23975 whole entry): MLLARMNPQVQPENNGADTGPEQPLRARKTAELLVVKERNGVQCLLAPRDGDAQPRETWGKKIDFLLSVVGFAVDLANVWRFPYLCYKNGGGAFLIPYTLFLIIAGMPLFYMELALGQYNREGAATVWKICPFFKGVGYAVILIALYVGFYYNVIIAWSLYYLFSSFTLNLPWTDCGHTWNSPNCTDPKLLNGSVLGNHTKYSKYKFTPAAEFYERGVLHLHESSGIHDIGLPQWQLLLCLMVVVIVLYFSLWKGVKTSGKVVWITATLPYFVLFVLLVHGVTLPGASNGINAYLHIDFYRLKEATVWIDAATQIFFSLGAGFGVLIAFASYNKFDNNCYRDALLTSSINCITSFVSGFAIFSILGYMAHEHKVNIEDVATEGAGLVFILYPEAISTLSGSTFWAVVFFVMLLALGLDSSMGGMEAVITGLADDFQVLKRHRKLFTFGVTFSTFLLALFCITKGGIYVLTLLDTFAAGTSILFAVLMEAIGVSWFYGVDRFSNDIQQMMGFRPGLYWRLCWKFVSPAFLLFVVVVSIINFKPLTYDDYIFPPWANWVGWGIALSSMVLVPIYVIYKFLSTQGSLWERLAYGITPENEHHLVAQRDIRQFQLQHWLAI
# [6] = target: Kappa-type opioid receptor (Homo sapiens, UniProt P41145); assay: PDSP Secondary Binding target: OPRK1 - Compounds are tested at 10 uM concentration, plate are incubated at room temperature in the dark for 90 minutes. Reaction are stopped by vacuum filtration onto 0.3% polyethyleneimine soaked filter mats using Filtermate harvester. Scintillation cocktail is then melted onto microwave-dried filters on a hot plate and the radio activity is counted in Microbia counter.
# Chain of Kappa-type opioid receptor (P41145 whole entry): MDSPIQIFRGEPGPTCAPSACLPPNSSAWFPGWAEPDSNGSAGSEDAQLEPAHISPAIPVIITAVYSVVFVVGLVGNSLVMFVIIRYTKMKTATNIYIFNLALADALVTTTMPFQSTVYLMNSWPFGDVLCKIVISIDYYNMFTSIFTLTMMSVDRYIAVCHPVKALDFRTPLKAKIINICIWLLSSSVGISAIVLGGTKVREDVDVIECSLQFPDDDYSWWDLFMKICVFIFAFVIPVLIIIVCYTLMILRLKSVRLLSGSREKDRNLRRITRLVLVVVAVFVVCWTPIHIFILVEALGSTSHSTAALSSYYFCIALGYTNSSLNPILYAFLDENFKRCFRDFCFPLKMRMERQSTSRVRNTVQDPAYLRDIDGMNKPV
# [7] = target: 5-hydroxytryptamine receptor 1B (Homo sapiens, UniProt P28222); assay: PDSP Secondary Binding target: HTR1B - Compounds are tested at 10 uM concentration, plate are incubated at room temperature in the dark for 90 minutes. Reaction are stopped by vacuum filtration onto 0.3% polyethyleneimine soaked filter mats using Filtermate harvester. Scintillation cocktail is then melted onto microwave-dried filters on a hot plate and the radio activity is counted in Microbia counter.
# Chain of 5-hydroxytryptamine receptor 1B (P28222 whole entry): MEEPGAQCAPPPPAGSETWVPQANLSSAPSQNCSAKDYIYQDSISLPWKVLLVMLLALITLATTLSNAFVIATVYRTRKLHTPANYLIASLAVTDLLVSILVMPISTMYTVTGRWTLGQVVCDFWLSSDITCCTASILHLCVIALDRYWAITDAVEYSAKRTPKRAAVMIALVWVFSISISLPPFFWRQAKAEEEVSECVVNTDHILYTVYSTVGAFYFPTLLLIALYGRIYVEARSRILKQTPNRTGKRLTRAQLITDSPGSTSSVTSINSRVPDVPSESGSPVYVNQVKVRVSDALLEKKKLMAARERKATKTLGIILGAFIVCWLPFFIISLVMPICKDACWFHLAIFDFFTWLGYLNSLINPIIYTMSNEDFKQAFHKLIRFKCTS
# [8] = target: T2, Alpha-1B adrenergic receptor (Homo sapiens, UniProt P35368); assay: PDSP Secondary Binding target: ADRA1B - Compounds are tested at 10 uM concentration, plate are incubated at room temperature in the dark for 90 minutes. Reaction are stopped by vacuum filtration onto 0.3% polyethyleneimine soaked filter mats using Filtermate harvester. Scintillation cocktail is then melted onto microwave-dried filters on a hot plate and the radio activity is counted in Microbia counter.
# T2 sequence (P35368 whole entry): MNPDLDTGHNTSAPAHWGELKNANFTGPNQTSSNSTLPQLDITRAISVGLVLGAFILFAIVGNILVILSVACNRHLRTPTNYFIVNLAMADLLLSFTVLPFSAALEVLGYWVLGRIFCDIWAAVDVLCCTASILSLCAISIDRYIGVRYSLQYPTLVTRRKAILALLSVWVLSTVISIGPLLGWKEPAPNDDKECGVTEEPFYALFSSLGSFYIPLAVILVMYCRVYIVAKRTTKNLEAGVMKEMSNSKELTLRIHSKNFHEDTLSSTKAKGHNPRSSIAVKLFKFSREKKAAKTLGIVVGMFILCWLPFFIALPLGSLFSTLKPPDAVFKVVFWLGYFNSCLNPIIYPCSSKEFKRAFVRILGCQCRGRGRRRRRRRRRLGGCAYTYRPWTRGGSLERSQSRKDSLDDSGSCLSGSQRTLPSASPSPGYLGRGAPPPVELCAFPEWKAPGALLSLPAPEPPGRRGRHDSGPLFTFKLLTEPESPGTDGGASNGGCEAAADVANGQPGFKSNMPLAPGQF
# [9] = target: T3, Alpha-1D adrenergic receptor (Homo sapiens, UniProt P25100); assay: PDSP Secondary Binding target: ADRA1D - Compounds are tested at 10 uM concentration, plate are incubated at room temperature in the dark for 90 minutes. Reaction are stopped by vacuum filtration onto 0.3% polyethyleneimine soaked filter mats using Filtermate harvester. Scintillation cocktail is then melted onto microwave-dried filters on a hot plate and the radio activity is counted in Microbia counter.
# T3 sequence (P25100 whole entry): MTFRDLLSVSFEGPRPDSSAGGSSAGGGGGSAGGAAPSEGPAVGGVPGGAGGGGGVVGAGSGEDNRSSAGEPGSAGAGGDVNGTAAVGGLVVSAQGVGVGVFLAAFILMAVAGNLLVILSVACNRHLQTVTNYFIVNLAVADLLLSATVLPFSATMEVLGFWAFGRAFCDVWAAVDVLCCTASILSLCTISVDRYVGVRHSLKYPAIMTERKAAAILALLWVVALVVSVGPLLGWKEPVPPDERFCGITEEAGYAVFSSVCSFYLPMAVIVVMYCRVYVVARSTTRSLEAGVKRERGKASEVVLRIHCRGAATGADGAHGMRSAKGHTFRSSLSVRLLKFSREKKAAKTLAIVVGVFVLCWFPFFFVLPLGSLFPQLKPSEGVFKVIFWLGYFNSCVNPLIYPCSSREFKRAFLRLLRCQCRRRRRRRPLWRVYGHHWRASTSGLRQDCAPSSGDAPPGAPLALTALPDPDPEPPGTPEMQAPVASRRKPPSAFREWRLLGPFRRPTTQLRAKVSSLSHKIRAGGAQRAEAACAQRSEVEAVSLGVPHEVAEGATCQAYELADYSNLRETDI
# [10] = target: 5-hydroxytryptamine receptor 7 (Homo sapiens, UniProt P34969); assay: PDSP Secondary Binding target: HTR7 - Compounds are tested at 10 uM concentration, plate are incubated at room temperature in the dark for 90 minutes. Reaction are stopped by vacuum filtration onto 0.3% polyethyleneimine soaked filter mats using Filtermate harvester. Scintillation cocktail is then melted onto microwave-dried filters on a hot plate and the radio activity is counted in Microbia counter.
# Chain of 5-hydroxytryptamine receptor 7 (P34969 whole entry): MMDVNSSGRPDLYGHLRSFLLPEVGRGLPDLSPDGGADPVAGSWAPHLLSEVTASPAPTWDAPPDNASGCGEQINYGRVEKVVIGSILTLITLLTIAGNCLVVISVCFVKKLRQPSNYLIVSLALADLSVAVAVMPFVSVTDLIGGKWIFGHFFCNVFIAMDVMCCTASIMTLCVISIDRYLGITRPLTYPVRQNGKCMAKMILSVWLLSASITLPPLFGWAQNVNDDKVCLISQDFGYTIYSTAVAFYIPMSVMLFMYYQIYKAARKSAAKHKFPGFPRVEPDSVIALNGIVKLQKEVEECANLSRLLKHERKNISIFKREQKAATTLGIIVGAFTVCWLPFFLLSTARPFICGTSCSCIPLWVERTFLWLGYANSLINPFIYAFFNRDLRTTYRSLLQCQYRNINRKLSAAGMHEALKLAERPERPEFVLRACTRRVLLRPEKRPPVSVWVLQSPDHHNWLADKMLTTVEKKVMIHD
# [11] = target: T4, 5-hydroxytryptamine receptor 2C (Homo sapiens, UniProt P28335); assay: PDSP Secondary Binding target: HTR2C - Compounds are tested at 10 uM concentration, plate are incubated at room temperature in the dark for 90 minutes. Reaction are stopped by vacuum filtration onto 0.3% polyethyleneimine soaked filter mats using Filtermate harvester. Scintillation cocktail is then melted onto microwave-dried filters on a hot plate and the radio activity is counted in Microbia counter.
# T4 sequence (P28335 whole entry): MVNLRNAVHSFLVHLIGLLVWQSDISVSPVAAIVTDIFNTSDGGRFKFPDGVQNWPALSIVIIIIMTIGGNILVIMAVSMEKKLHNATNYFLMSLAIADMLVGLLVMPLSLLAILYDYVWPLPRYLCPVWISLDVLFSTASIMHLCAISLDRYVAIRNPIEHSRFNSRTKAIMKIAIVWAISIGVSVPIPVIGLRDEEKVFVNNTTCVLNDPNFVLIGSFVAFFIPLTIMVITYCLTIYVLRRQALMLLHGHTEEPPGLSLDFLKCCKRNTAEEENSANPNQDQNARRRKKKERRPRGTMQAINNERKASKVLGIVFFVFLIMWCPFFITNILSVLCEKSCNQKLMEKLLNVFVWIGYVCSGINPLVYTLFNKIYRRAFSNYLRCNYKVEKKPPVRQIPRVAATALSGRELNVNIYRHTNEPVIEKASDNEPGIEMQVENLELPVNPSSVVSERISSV
# [12] = target: T5, Alpha-2B adrenergic receptor (Homo sapiens, UniProt P18089); assay: PDSP Secondary Binding target: ADRA2B - Compounds are tested at 10 uM concentration, plate are incubated at room temperature in the dark for 90 minutes. Reaction are stopped by vacuum filtration onto 0.3% polyethyleneimine soaked filter mats using Filtermate harvester. Scintillation cocktail is then melted onto microwave-dried filters on a hot plate and the radio activity is counted in Microbia counter.
# T5 sequence (P18089 whole entry): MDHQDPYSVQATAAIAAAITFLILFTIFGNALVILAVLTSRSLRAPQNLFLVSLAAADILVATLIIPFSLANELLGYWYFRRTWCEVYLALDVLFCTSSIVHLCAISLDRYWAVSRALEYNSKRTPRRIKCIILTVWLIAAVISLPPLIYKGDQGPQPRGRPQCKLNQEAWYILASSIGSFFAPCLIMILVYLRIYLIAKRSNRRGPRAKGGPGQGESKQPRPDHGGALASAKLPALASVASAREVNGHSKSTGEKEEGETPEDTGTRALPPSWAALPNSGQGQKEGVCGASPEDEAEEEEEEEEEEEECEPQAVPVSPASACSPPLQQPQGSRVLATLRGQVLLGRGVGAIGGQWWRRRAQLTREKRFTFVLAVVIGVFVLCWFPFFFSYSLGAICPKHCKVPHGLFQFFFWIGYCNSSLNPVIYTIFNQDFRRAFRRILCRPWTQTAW
# [13] = target: 5-hydroxytryptamine receptor 1D (Homo sapiens, UniProt P28221); assay: PDSP Secondary Binding target: HTR1D - Compounds are tested at 10 uM concentration, plate are incubated at room temperature in the dark for 90 minutes. Reaction are stopped by vacuum filtration onto 0.3% polyethyleneimine soaked filter mats using Filtermate harvester. Scintillation cocktail is then melted onto microwave-dried filters on a hot plate and the radio activity is counted in Microbia counter.
# Chain of 5-hydroxytryptamine receptor 1D (P28221 whole entry): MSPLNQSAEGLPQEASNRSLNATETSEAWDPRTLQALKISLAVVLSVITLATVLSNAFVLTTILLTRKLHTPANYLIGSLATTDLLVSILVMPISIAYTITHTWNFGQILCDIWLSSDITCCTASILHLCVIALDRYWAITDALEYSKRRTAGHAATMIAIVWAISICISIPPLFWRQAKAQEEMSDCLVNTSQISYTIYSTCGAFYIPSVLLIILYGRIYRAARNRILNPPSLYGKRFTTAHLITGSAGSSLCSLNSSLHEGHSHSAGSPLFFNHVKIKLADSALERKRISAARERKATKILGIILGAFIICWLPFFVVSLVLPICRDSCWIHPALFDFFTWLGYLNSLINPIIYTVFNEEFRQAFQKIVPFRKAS
# [14] = target: T6, Alpha-2A adrenergic receptor (Homo sapiens, UniProt P08913); assay: PDSP Secondary Binding target: ADRA2A - Compounds are tested at 10 uM concentration, plate are incubated at room temperature in the dark for 90 minutes. Reaction are stopped by vacuum filtration onto 0.3% polyethyleneimine soaked filter mats using Filtermate harvester. Scintillation cocktail is then melted onto microwave-dried filters on a hot plate and the radio activity is counted in Microbia counter.
# T6 sequence (P08913 whole entry): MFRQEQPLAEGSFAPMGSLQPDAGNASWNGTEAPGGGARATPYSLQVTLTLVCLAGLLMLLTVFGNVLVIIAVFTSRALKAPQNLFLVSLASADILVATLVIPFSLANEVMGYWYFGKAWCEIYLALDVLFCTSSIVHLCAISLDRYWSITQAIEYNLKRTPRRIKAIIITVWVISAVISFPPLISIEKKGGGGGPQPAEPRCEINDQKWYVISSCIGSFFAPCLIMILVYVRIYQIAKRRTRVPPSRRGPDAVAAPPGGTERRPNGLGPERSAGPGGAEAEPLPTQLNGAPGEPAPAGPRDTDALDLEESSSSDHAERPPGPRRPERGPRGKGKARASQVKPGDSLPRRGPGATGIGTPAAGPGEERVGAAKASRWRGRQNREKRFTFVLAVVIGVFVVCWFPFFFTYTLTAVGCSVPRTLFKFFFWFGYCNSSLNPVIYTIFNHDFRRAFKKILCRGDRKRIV
smiles,measurement,setting,value
CC(C)NCC(O)COc1cccc2ccccc12 (stereo unspecified) [PROPRANOLOL HYDROCHLORIDE],pKi,[1],7.02
same,pKi,[2],6.27
same,pKi,[3],6.45
COc1ccc(S(=O)(=O)c2cc(OC)ccc2S(=O)(=O)c2ccc([C@H](C)NS(C)(=O)=O)cc2)cc1,pKi,D(4) dopamine receptor,5.94
same,pKi,[2],6.55
same,pKi,D(3) dopamine receptor,6.25
N[C@H](C(=O)O)c1ccc(C(=O)O)c(C(=O)O)c1,pKi,[4],5.12
same,pKi,[5],5.12
same,pKi,D(3) dopamine receptor,5.69
N#Cc1c(N)nc(SCC(N)=O)c(C#N)c1-c1ccc(OCC2CC2)cc1,pKi,[1],6.00
same,pKi,[6],6.39
same,pKi,[7],5.18
Brc1c(NC2=NCCN2)ccc2nccnc12,pKi,[8],5.38
same,pKi,[9],5.68
same,pKi,[10],5.96
same,pKi,[3],5.82
Clc1cccc(Cl)c1N=C1NCCN1 [CLONIDINE HYDROCHLORIDE],pKi,[8],5.58
same,pKi,[11],5.16
same,pKi,[9],5.70
same,pKi,[10],6.06
same,pKi,[3],5.56
C[C@H](CO)Nc1nc(SCc2cccc(Cl)c2F)nc2[nH]c(=O)sc12,pKi,[5],< 5.00
same,pKi,[7],5.08
CCCCCCCCCCCCCCCCOC[C@H](COP(=O)([O-])OCC[N+](C)(C)C)OC(C)=O,pKi,[12],< 5.00
same,pKi,[8],5.35
same,pKi,D(3) dopamine receptor,5.75
same,pKi,[13],5.07
same,pKi,[11],5.51
same,pKi,[14],< 5.00
same,pKi,[9],5.69
same,pKi,[3],5.74
